This test deals with T1, recombinant human PAI-1 (Homo sapiens, UniProt P05121).
T1 construct: purchased Molecular Innovations, Inc
In words: Test Example 1: human PAI-1 inhibitory activity (tPA fluorogenic substrate, pH 7.5 Tris buffer). The test is classed as biochemical. The following applies: Tris buffer. As for the experimental part: 50 mM Tris, 150 mM NaCl, 10 μg/ml BSA, 0.01% Tween80 (SIGMA-ALDRICH Corporation)

The structures appear in SMILES notation.

T1 sequence (P05121 24-402): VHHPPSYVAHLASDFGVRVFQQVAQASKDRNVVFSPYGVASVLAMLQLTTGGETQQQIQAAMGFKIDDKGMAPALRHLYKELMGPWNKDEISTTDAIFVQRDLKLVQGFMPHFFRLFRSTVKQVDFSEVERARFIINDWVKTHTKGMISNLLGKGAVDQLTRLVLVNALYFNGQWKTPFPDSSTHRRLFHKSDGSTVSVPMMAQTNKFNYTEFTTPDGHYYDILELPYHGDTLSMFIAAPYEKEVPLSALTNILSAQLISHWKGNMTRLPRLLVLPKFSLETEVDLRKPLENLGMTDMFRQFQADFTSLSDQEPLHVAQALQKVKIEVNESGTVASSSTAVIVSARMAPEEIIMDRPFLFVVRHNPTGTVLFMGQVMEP

`CC(C)(C)c1ccc(CN(C(=O)C(=O)O)c2cc(-c3ccccc3)cc(C(F)(F)F)c2)cc1` [Compound 140]: the “Inhibition Rate of PAI-1 Activity (%)” value reads like this: (Compound Concentration 5 μM) 6%; (Compound Concentration 10 μM) 31%; (Compound Concentration 25 μM) 77%.
For `CC(C)(C)c1ccc(COc2ccc(-c3ccc(F)cc3)cc2/C=C/C(=O)O)cc1` [Compound 33], in that order: 23%, 53% and 96%.
On to `O=C(O)CCc1cc(-c2ccc(OC(F)(F)F)cc2)ccc1OCCCOc1ccccc1` [Compound 103], for which the “Inhibition Rate of PAI-1 Activity (%)” value (Compound Concentration 5 μM) is 33%, the “Inhibition Rate of PAI-1 Activity (%)” value (Compound Concentration 10 μM) amounted to 57% and the “Inhibition Rate of PAI-1 Activity (%)” value (Compound Concentration 25 μM) is reported as 89%.
For `CC(C)(C)c1ccc(-c2ccc(OCc3cccc(OC(F)(F)F)c3)c(CCC(=O)O)c2)cc1` [Compound 68], the “Inhibition Rate of PAI-1 Activity (%)” value reads like this: (Compound Concentration 5 μM) 40%; (Compound Concentration 10 μM) 74%; (Compound Concentration 25 μM) 95%.
On to `CC(C)(C)c1ccc(COc2ccc(-c3ccc(C(C)(C)C)cc3)cc2CCC(=O)O)cc1` [Compound 40], for which the “Inhibition Rate of PAI-1 Activity (%)” value is 22% (Compound Concentration 5 μM), 66% (Compound Concentration 10 μM) and more than 99% (Compound Concentration 25 μM).
`CC(C)(C)c1ccc(-c2ccc(N(Cc3cccc(OC(F)(F)F)c3)C(=O)C(=O)O)cc2)cc1` [Compound 203]: the “Inhibition Rate of PAI-1 Activity (%)” value by setting is: (Compound Concentration 5 μM) 69%; (Compound Concentration 10 μM) 91%; (Compound Concentration 25 μM) 97%.
Consider `CCCCCOc1ccc(-c2ccc(OC(F)(F)F)cc2)cc1N(Cc1ccccc1)C(=O)C(=O)O` [Compound 195], for which the “Inhibition Rate of PAI-1 Activity (%)” value (Compound Concentration 5 μM) is listed as 77%, the “Inhibition Rate of PAI-1 Activity (%)” value (Compound Concentration 10 μM) is listed as 94% and the “Inhibition Rate of PAI-1 Activity (%)” value (Compound Concentration 25 μM) was determined as 93%.
Take `Cc1ccc(-c2ccc(OC(F)(F)F)cc2)cc1N(Cc1ccc(C(C)(C)C)cc1)C(=O)C(=O)O` [Compound 136]: the “Inhibition Rate of PAI-1 Activity (%)” value runs as follows: (Compound Concentration 5 μM) 16%; (Compound Concentration 10 μM) 47%; (Compound Concentration 25 μM) 79%.
As for `CC(C)(C)c1ccc(COc2ccc(-c3ccc(OC(F)(F)F)cc3)cc2NCC(=O)O)cc1` [Compound 539], the “Inhibition Rate of PAI-1 Activity (%)” value reads like this: (Compound Concentration 5 μM) 14%; (Compound Concentration 10 μM) 34%; (Compound Concentration 25 μM) 65%.
On the same counts, the results for `CC(C)(C)c1ccc(CN(C(=O)C(=O)O)c2ccccc2OCc2ccc(OC(F)(F)F)cc2)cc1` [Compound 620] are 41%, 77% and 95%.
`CCCCc1ccc(CN(C(=O)C(=O)O)c2ccc(-c3ccc(OC(F)(F)F)cc3)cc2)cc1` [Compound 167]: the “Inhibition Rate of PAI-1 Activity (%)” value (Compound Concentration 5 μM) is on record as 37%, the “Inhibition Rate of PAI-1 Activity (%)” value (Compound Concentration 10 μM) worked out at 75% and the “Inhibition Rate of PAI-1 Activity (%)” value (Compound Concentration 25 μM) amounted to 87%.
With `CC(C)(C)c1ccc(-c2ccc(N(Cc3ccc(Cl)cc3)C(=O)C(=O)O)cc2)cc1` [Compound 204], the “Inhibition Rate of PAI-1 Activity (%)” value is 58% (Compound Concentration 5 μM), 85% (Compound Concentration 10 μM) and more than 99% (Compound Concentration 25 μM).
Consider `Cc1ccc(-c2ccc(N(Cc3ccc(C(C)(C)C)cc3)C(=O)C(=O)O)cc2)cc1` [Compound 141], for which the “Inhibition Rate of PAI-1 Activity (%)” value runs as follows: (Compound Concentration 10 μM) 5%; (Compound Concentration 25 μM) 52%.
With `CC(C)(C)c1ccc(CN(C(=O)C(=O)O)c2ccc(Nc3ccc(OC(F)(F)F)cc3)cc2)cc1` [Compound 626], the “Inhibition Rate of PAI-1 Activity (%)” value is, setting by setting: (Compound Concentration 5 μM) 42%; (Compound Concentration 10 μM) 77%; (Compound Concentration 25 μM) 97%.
For `O=C(O)C=Cc1cc(-c2ccc(OC(F)(F)F)cc2)ccc1Oc1ccc(OC(F)(F)F)cc1` [Compound 15], in that order: 23%, 47% and 94%.
Regarding `CC(C)(C)c1ccc(CN(C(=O)C(=O)O)c2ccc(-c3ccc(F)cc3)cc2)cc1` [Compound 127], the “Inhibition Rate of PAI-1 Activity (%)” value by setting is: (Compound Concentration 5 μM) 21%; (Compound Concentration 10 μM) 43%.
Take `Cc1c(-c2ccc(OC(F)(F)F)cc2)cccc1N(Cc1ccc(C(C)(C)C)cc1)C(=O)C(=O)O` [Compound 177]: the “Inhibition Rate of PAI-1 Activity (%)” value runs as follows: (Compound Concentration 5 μM) 43%; (Compound Concentration 10 μM) 83%; (Compound Concentration 25 μM) 91%.
Take `Cc1ccc(N(Cc2ccc(C(C)(C)C)cc2)C(=O)C(=O)O)cc1OCc1ccc(OC(F)(F)F)cc1` [Compound 625]: the “Inhibition Rate of PAI-1 Activity (%)” value was determined as 59% (Compound Concentration 5 μM), 92% (Compound Concentration 10 μM) and 91% (Compound Concentration 25 μM).
Take `CCCOc1ccc(N(CCCCc2ccccc2)C(=O)C(=O)O)cc1-c1ccc(OC(F)(F)F)cc1` [Compound 240]: the “Inhibition Rate of PAI-1 Activity (%)” value turned out to be 62% (Compound Concentration 5 μM), 91% (Compound Concentration 10 μM) and 95% (Compound Concentration 25 μM).
For the molecule `Cc1cccc(CN(C(=O)C(=O)O)c2ccc(-c3ccc(OC(F)(F)F)cc3)cc2)c1` [Compound 125], the “Inhibition Rate of PAI-1 Activity (%)” value by setting is: (Compound Concentration 5 μM) 15%; (Compound Concentration 10 μM) 31%.
As to `CC(C)(Oc1ccc(-c2ccc(OC(F)(F)F)cc2)cc1Oc1ccc(C(C)(C)C)cc1)C(=O)O` [Compound 110], the “Inhibition Rate of PAI-1 Activity (%)” value was determined as 37% (Compound Concentration 5 μM), 51% (Compound Concentration 10 μM) and 83% (Compound Concentration 25 μM).
Take `CC(C)(C)c1ccc(CN(C(=O)C(=O)O)c2cc(Oc3ccc(OC(F)(F)F)cc3)cc(C(F)(F)F)c2)cc1` [Compound 175]: the “Inhibition Rate of PAI-1 Activity (%)” value runs as follows: (Compound Concentration 5 μM) 66%; (Compound Concentration 10 μM) 94%; (Compound Concentration 25 μM) 87%.
Regarding `COc1ccccc1-c1ccc(OCc2ccc(C(C)(C)C)cc2)c(/C=C/C(=O)O)c1` [Compound 55], the “Inhibition Rate of PAI-1 Activity (%)” value came out at 21% (Compound Concentration 5 μM), 46% (Compound Concentration 10 μM) and 95% (Compound Concentration 25 μM).
On to `CC(C)(C)c1ccc(Oc2cc(-c3ccc(OC(F)(F)F)cc3)ccc2OC(F)(F)C(=O)O)cc1` [Compound 120], for which the “Inhibition Rate of PAI-1 Activity (%)” value was found to be 59% (Compound Concentration 5 μM), 87% (Compound Concentration 10 μM) and 98% (Compound Concentration 25 μM).
Take `CC(C)(C)c1ccc(CN(C(=O)C(=O)O)c2ccc(-c3ccc(Cl)cc3)cc2)cc1` [Compound 135]: the “Inhibition Rate of PAI-1 Activity (%)” value is, setting by setting: (Compound Concentration 10 μM) 6%; (Compound Concentration 25 μM) 67%.
Turning to `CCCCOc1ccc(-c2ccc(OC(F)(F)F)cc2)cc1N(CCCc1ccccc1)C(=O)C(=O)O` [Compound 235], the “Inhibition Rate of PAI-1 Activity (%)” value by setting is: (Compound Concentration 5 μM) 66%; (Compound Concentration 10 μM) 89%; (Compound Concentration 25 μM) 93%.
On the same counts, the results for `CC(C)(C)c1ccc(CN(C(=O)C(=O)O)c2ccc(OCc3ccc(OC(F)(F)F)cc3)c(OCc3ccc(OC(F)(F)F)cc3)c2)cc1` [Compound 622] are 44%, 72% and 88%.

Source of the values: patent US8633245B2, “PAI-1 inhibitor” (Institute of Medicinal Molecular Design, Inc., priority 2008, dated 2014).
